Each structure is given as a SMILES string. Values after ≈ are worked out from the molar mass of the structure shown. Bounds are passed on as bounds.

One test concerns Plasmodium falciparum. The test is described as follows: Antimalarial activity against Plasmodium falciparum. It is filed as functional, organism-based. The note with it: Plasmodium falciparum.
Take `Cc1cc(O)c2c(c1)[C@H]([C@H]1O[C@H](OC(=O)c3ccccc3)[C@@H](O)[C@@H](O)[C@@H]1O)c1cccc(O)c1C2=O` [UVEOSIDE]: 2400 nM corresponded to half-maximal inhibition (IC50). This counts as single-digit micromolar.

As for `C=C[C@@]12COC(=O)C(=C)[C@@H]1[C@@H](O)[C@H](C(=C)C(=O)OC)[C@@H](OC(=O)C(=C)CO)C2` [VERNODALOL], the IC50 (as a rule, the concentration that inhibits the measured activity by half) worked out at 4.8 µg/mL.

In turn, `COc1cc2c(cc1OC)[C@@H]1C[C@H](C[C@H]3CCCCN31)OC(=O)/C=C\c1ccc(O)c-2c1` [VERTINE] gave a half-inhibitory concentration (IC50) of 4.76 µg/mL.

The subject of the next test is Plasmodium falciparum. The test is described as follows: Antimalarial activity against Plasmodium falciparum T9-96. Type of test: functional, organism-based.
Settings: not given
`CO[C@@H]1C=C[C@]23c4cc5c(cc4[C@@H](O)N(C[C@@H]2O)[C@H]3C1)OCO5` registered a 50% inhibitory concentration (IC50) of 0.34 µg/mL (≈ 1.07 µM).

In the next test the test system is Plasmodium falciparum. Nature of the test: Antimalarial activity against Plasmodium falciparum K1. Type of test: functional, organism-based.
Settings: not given
For the compound `COc1c(OCCCN(C)C)cc2oc3cc(O)c(CC=C(C)C)c(O)c3c(=O)c2c1CC=C(C)C`, the 50% inhibitory concentration (IC50) is below 1000 nM.

`CCN(CC)CC(O)COc1cc2oc3cc(O)c(CC=C(C)C)c(O)c3c(=O)c2c(CC=C(C)C)c1OC` (configuration not stated) had a half-inhibitory concentration (IC50) below 1000 nM.

In turn, `CCN(CC)CCOc1cc2oc3cc(O)c(CC=C(C)C)c(O)c3c(=O)c2c(CC=C(C)C)c1OC` had an IC50 below 1000 nM.

In turn, `C[C@H]1C/C=C/[C@@H](O)[C@@H](O)CC/C=C/c2cc(O)cc(O)c2C(=O)O1` [AIGIALOMYCIN D] yielded an IC50 of 6.6 µg/mL.

With `CC[C@H](C)[C@H]1OC(=O)[C@H](Cc2ccccc2)N(C)C(=O)[C@@H](C(C)C)OC(=O)[C@H](Cc2ccccc2)N(C)C(=O)[C@@H](C(C)C)OC(=O)[C@H](Cc2ccccc2)N(C)C1=O` [BEAUVERICIN A], the half-maximal effective concentration (EC50) (usually the concentration needed to bring the measured effect to its halfway point) was determined as 12 µg/mL (≈ 15 µM).

For `CC(C)[C@@H]1OC(=O)[C@@H](Cc2ccccc2)N(C)C(=O)[C@H](C(C)C)OC(=O)[C@@H](Cc2ccccc2)N(C)C(=O)[C@H](C(C)C)OC(=O)[C@@H](Cc2ccccc2)N(C)C1=O` [BEAUVERICIN], a half-maximal response (EC50) required 1.6 µg/mL (≈ 2.04 µM).

`COc1ccc2c3c1O[C@H]1C[C@@H](O)C=C[C@@]31CCN(C)C2` [GALANTAMINE] yielded an IC50 of 4.38 µg/mL.

With `COC(=O)C[C@H]1[C@]2(C)C3=C(C)[C@H](c4ccoc4)C[C@H]3O[C@@H]2[C@@H]2OC(=O)[C@]3(C)C=CC(=O)[C@@]1(C)[C@@H]23` [NIMBOLIDE], the EC50 came out at 0.00095 µg/mL (≈ 0.00204 µM).

Turning to `CO[C@@H]1C=C[C@@]23c4cc5c(cc4CO[C@]2(O)CN(C)[C@H]3C1)OCO5` [TAZETTINE], the midpoint of inhibition, the IC50, lay at 5.42 µg/mL.

In another test the test system is Plasmodium falciparum. Nature of the test: Antimalarial activity against multidrug-resistant Plasmodium falciparum K1. Type of test: functional, organism-based.
Settings: not given
Regarding `CC[C@@]12CCCN3CC[C@]4(c5ccc(OC)c(O)c5N(C(C)=O)[C@@H]4CC1)[C@H]32` [ASPIDOCARPINE], it took 19 nM to reach half-maximal inhibition (IC50).

`CN1C2=CC(O)=c3ccccc3=NC2c2ccccc21` (configuration not stated) [CRYPTOHEPTINE] displayed an IC50 of 800 nM. Against the preceding compound, the IC50 is about 42-fold higher.

As to `Cc1c2ccncc2c(C)c2c1[nH]c1ccccc12` [ELLIPTECINE], the IC50 was 73 nM.

Turning to `COC(=O)[C@]12OC[C@]34[C@H]([C@@H](O)[C@@H]1O)[C@@]1(C)C5=CC(=O)OC5=C[C@@H](C)[C@@H]1C[C@H]3OC(=O)[C@H](OC(C)=O)[C@@H]24` [NEOSERGEOLIDE], 2 nM corresponded to half-maximal inhibition (IC50).

The subject of the next test is Plasmodium falciparum. Nature of the test: Antimalarial activity against Plasmodium falciparum W2. Type of test: functional, organism-based.
Settings: not given
`COc1ccc2cc1Oc1ccc(cc1)C[C@H]1c3c(cc4c(c3Oc3cc5c(cc3OC)CCN(C)[C@@H]5C2)OCO4)CCN1C` [CEPHARANTHINE]: 610 nM corresponded to half-maximal inhibition (IC50). In other words, the sub-micromolar range.

As to `CN1CCc2cc3c(c4c2c1cc1ccccc14)OCO3` [DEHYDROROEMERINE], the IC50 was found to be 360 nM.

`COc1cc2c(cc1OC)[C@@H]1Cc3ccc(OC)c(OC)c3CN1CC2` [TETRAHYDROPALMATINE] gave an IC50 of 32600 nM.

`COc1cc2c(cc1OC)CN1CCc3cc(OC)c(OC)cc3[C@@H]1C2` [XYLOPININE]: half-maximal inhibition (IC50) was put at 52300 nM.

For the next test, the system named is Plasmodium falciparum. Nature of the test: Antimalarial activity against chloroquine-resistant Plasmodium falciparum. It is filed as functional, organism-based.
Settings: not given
In turn, `COc1ccc([C@@H]2Oc3cc(O)cc(O)c3C(=O)[C@H]2[C@H]2C(=O)c3c(O)cc(O)cc3O[C@H]2c2ccc(O)cc2)cc1` [SIKOKIANIN B] yielded a concentration for half-maximal inhibition (IC50) of 0.54 µg/mL (≈ 0.97 µM).

On to `COc1ccc([C@H]2Oc3cc(O)cc(O)c3C(=O)[C@@H]2[C@H]2C(=O)c3c(O)cc(O)cc3O[C@@H]2c2ccc(O)cc2)cc1` [SIKOKIANIN C], for which it took 0.56 µg/mL (≈ 1.01 µM) to reach half-maximal inhibition (IC50). This IC50 and that of the compound before are within 1.5-fold of each other.

For the next test, the system named is Plasmodium berghei. The test is described as follows: Antimalarial activity against Plasmodium berghei infected in mice (Mus musculus) assessed as increase in survival of mice (Mus musculus) at 100 uM/kg. It is filed as functional.
Settings: not given
On to `C[C@@H]1CC[C@H]2[C@@H](C)C(=O)O[C@@H]3O[C@@]4(C)CC[C@@H]1[C@]32OO4` [ARTEMISININ], for which the Survival came out at 2 days.

Consider `CCN(CC)CCCC(C)Nc1ccnc2cc(Cl)ccc12` (configuration not stated) [CHLOROQUINE], for which the Survival is 6 days.

With `Oc1cccc2c1[nH]c1c(C3=C[C@]4(O)CC/C=C\CCCCN5CC[C@H]3[C@@]3(C[C@H]6/C=C\CCCCN6[C@@H]34)C5)nccc12` [ENT-8-HYDROXYMENZAMINE A], the Survival is 9 days.

Take `O[C@@H]1CCCN2CC[C@@H]1O[C@@]13CC[C@@H](OC[C@]45CN6CCCC/C=C\CC[C@](O)(C=C(c7nccc8c7[nH]c7ccccc78)[C@@H]4CC6)[C@H]25)[C@@H](O)CCN1[C@@H]1[C@]2(CN4CCCC/C=C\CC[C@]1(O)C=C(c1nccc5c1[nH]c1ccccc15)[C@@H]2CC4)C3` [NEO-KAULUAMINE]: the Survival worked out at 9 days.

These data come from ChEMBL document CHEMBL1177693, “Antimalarials from nature” (Bioorg Med Chem, 2009).
